In patent US20230143604A1, “QW DOSING OF GIP RECEPTOR AGONIST PEPTIDE COMPOUNDS AND USES THEREOF” (TAKEDA PHARMACEUTICAL COMPANY LIMITED, priority 2020, published 2023):
Starred links: 1 amine or outer side, 2 acyl side, 3 side chain; linkers in the order of their positions; H or OH if unused. Non-standard residues stand in square brackets, D forms with d. Residues, ends and D or L forms follow the SMILES beside them. Groups on a side chain read outwards from the residue. *: point of attachment. C18 diacid = O=C(O)CCCCCCCCCCCCCCCCC(=O)*; C17 diacid = O=C(O)CCCCCCCCCCCCCCCC(=O)*; γGlu = O=C(O)[C@H](CCC(=O)[*:2])N[*:1]; NMeY = CN[C@@H](Cc1ccc(O)cc1)C(=O)O; AEEA = NCCOCCOCC(=O)O; Aib = CC(C)(N)C(=O)O

Assay: Solubility in phosphate buffer pH 7.4
Procedure: Solubility of the GIPR peptides may be determined by dissolution in a phosphate buffer followed by quantitation using liquid chromatography, for example, High Performance Liquid Chromatogry (HPLC). An illustrative method is provided. For determination of the solubility of the GIPr agonist peptides, 3 mg of peptides are weighted out in a small glass vial. 100 μL of 200 mM Phosphate buffer pH 7.4 are added and the vial is sonicated/votexed as necessary for a maximum of 1 min. […] If insoluble material is observed in the tube the addition of 100 μL of buffer and mixing is repeated until complete dissolution.
3 mg of peptides are weighted out in a small glass vial. 100 uL of 200 mM Phosphate buffer pH 7.4 are added and the vial is sonicated/votexed as necessary for a maximum of 1 min. […] If insoluble material is observed in the tube the addition of 100 uL of buffer and mixing is repeated until complete dissolution.

[1] = pH 7.4, aqueous buffer, pH 7.4 Phosphate Buffer - Solubility, 200 mM Phosphate buffer pH 7.4
[2] = pH 7.4, solubility in phosphate buffer at pH 7.4, 200 mM phosphate buffer pH 7.4

Structure (SMILES) | solubility [1] [mg/mL] | solubility [2] [mg/mL] | solubility (pH 7.4) [mg/mL] | solubility (pH 7.4, aqueous buffer) [mg/mL]
CC[C@H](C)[C@H](NC(=O)[C@H](CO)NC(=O)[C@H](Cc1ccc(O)cc1)NC(=O)[C@H](CC(=O)O)NC(=O)[C@H](CO)NC(=O)[C@@H](NC(=O)[C@H](Cc1ccccc1)NC(=O)[C@@H](NC(=O)CNC(=O)[C@H](CCC(=O)O)NC(=O)C(C)(C)NC(=O)[C@H](Cc1ccc(O)cc1)NC)[C@@H](C)O)[C@@H](C)CC)C(=O)N[C@@H](C)C(=O)N[C@@H](CC(C)C)C(=O)N[C@@H](CC(=O)O)C(=O)N[C@@H](CCCNC(=N)N)C(=O)NC(C)(C)C(=O)N[C@@H](CCCCNC(=O)COCCOCCNC(=O)COCCOCCNC(=O)CC[C@H](NC(=O)CCCCCCCCCCCCCCCC(=O)O)C(=O)O)C(=O)N[C@@H](CCC(N)=O)C(=O)NC(C)(C)C(=O)N[C@@H](CC(=O)O)C(=O)N[C@@H](Cc1ccccc1)C(=O)N[C@H](C(=O)N[C@@H](CC(N)=O)C(=O)N[C@@H](Cc1c[nH]c2ccccc12)C(=O)N[C@@H](CC(C)C)C(=O)N[C@@H](CC(C)C)C(=O)N[C@@H](C)C(=O)N[C@@H](CCC(N)=O)C(=O)N[C@@H](CCCNC(=N)N)C(=O)N1CCC[C@H]1C(=O)N[C@@H](CO)C(=O)N[C@@H](CO)C(=O)NCC(=O)N[C@@H](C)C(=O)N1CCC[C@H]1C(=O)N1CCC[C@H]1C(=O)N1CCC[C@H]1C(=O)N[C@@H](CO)C(N)=O)C(C)C [Compound 25] (H-[NMeY][Aib]EGTFISDYSIALDR[Aib]K([AEEA-AEEA-γGlu-C17 diacid])Q[Aib]DFVNWLLAQRPSSGAPPPS-NH2) | ≥ 30 | ≥ 15 |  | 
CC[C@H](C)[C@H](NC(=O)[C@H](Cc1ccccc1)NC(=O)[C@@H](NC(=O)CNC(=O)[C@H](CCC(=O)O)NC(=O)C(C)(C)NC(=O)[C@H](Cc1ccc(O)cc1)NC)[C@@H](C)O)C(=O)N[C@@H](CO)C(=O)N[C@@H](CC(=O)O)C(=O)N[C@@H](Cc1ccc(O)cc1)C(=O)N[C@@H](CO)C(=O)N[C@H](C(=O)NC(C)(C)C(=O)N[C@@H](CC(C)C)C(=O)N[C@@H](CC(=O)O)C(=O)N[C@@H](CCCNC(=N)N)C(=O)N[C@@H](CCCCNC(=O)COCCOCCNC(=O)COCCOCCNC(=O)CC[C@H](NC(=O)CC[C@H](NC(=O)CCCCCCCCCCCCCCCCC(=O)O)C(=O)O)C(=O)O)C(=O)N[C@@H](C)C(=O)N[C@@H](CCC(N)=O)C(=O)NC(C)(C)C(=O)N[C@@H](CC(N)=O)C(=O)N[C@@H](Cc1ccccc1)C(=O)N[C@H](C(=O)N[C@@H](CC(N)=O)C(=O)N[C@@H](Cc1c[nH]c2ccccc12)C(=O)N[C@@H](CC(C)C)C(=O)N[C@@H](CC(C)C)C(=O)N[C@@H](C)C(=O)N[C@@H](CCC(N)=O)C(=O)N[C@@H](CCCNC(=N)N)C(=O)N1CCC[C@H]1C(=O)N[C@@H](CO)C(=O)N[C@@H](CO)C(=O)NCC(=O)N[C@@H](C)C(=O)N1CCC[C@H]1C(=O)N1CCC[C@H]1C(=O)N1CCC[C@H]1C(=O)N[C@@H](CO)C(N)=O)C(C)C)[C@@H](C)CC [Compound 26] (H-[NMeY][Aib]EGTFISDYSI[Aib]LDRK([AEEA-AEEA-γGlu-γGlu-C18 diacid])AQ[Aib]NFVNWLLAQRPSSGAPPPS-NH2) | ≥ 30 | ≥ 15 |  | 
CC[C@H](C)[C@H](NC(=O)[C@H](Cc1ccccc1)NC(=O)[C@@H](NC(=O)CNC(=O)[C@H](CCC(=O)O)NC(=O)C(C)(C)NC(=O)[C@H](Cc1ccc(O)cc1)NC)[C@@H](C)O)C(=O)N[C@@H](CO)C(=O)N[C@@H](CC(=O)O)C(=O)N[C@@H](Cc1ccc(O)cc1)C(=O)N[C@@H](CO)C(=O)N[C@H](C(=O)NC(C)(C)C(=O)N[C@@H](CCCCNC(=O)COCCOCCNC(=O)COCCOCCNC(=O)CC[C@H](NC(=O)CC[C@H](NC(=O)CCCCCCCCCCCCCCCCC(=O)O)C(=O)O)C(=O)O)C(=O)N[C@@H](CC(=O)O)C(=O)N[C@@H](CCCNC(=N)N)C(=O)NC(C)(C)C(=O)N[C@@H](C)C(=O)N[C@@H](CCC(N)=O)C(=O)NC(C)(C)C(=O)N[C@@H](CC(N)=O)C(=O)N[C@@H](Cc1ccccc1)C(=O)N[C@H](C(=O)N[C@@H](CC(N)=O)C(=O)N[C@@H](Cc1c[nH]c2ccccc12)C(=O)N[C@@H](CC(C)C)C(=O)N[C@@H](CC(C)C)C(=O)N[C@@H](C)C(=O)N[C@@H](CCC(N)=O)C(=O)N[C@@H](CCCNC(=N)N)C(=O)N1CCC[C@H]1C(=O)N[C@@H](CO)C(=O)N[C@@H](CO)C(=O)NCC(=O)N[C@@H](C)C(=O)N1CCC[C@H]1C(=O)N1CCC[C@H]1C(=O)N1CCC[C@H]1C(=O)N[C@@H](CO)C(N)=O)C(C)C)[C@@H](C)CC [Compound 28] (H-[NMeY][Aib]EGTFISDYSI[Aib]K([AEEA-AEEA-γGlu-γGlu-C18 diacid])DR[Aib]AQ[Aib]NFVNWLLAQRPSSGAPPPS-NH2) | ≥ 30 | ≥ 15 |  | 
CC[C@H](C)[C@H](NC(=O)[C@H](Cc1ccccc1)NC(=O)[C@@H](NC(=O)CNC(=O)[C@H](CCC(=O)O)NC(=O)C(C)(C)NC(=O)[C@H](Cc1ccc(O)cc1)NC)[C@@H](C)O)C(=O)N[C@@H](CO)C(=O)N[C@@H](CC(=O)O)C(=O)N[C@@H](Cc1ccc(O)cc1)C(=O)N[C@@H](CO)C(=O)N[C@H](C(=O)NC(C)(C)C(=O)N[C@@H](CCCCNC(=O)COCCOCCNC(=O)COCCOCCNC(=O)CC[C@H](NC(=O)CC[C@H](NC(=O)CCCCCCCCCCCCCCCC(=O)O)C(=O)O)C(=O)O)C(=O)N[C@@H](CC(=O)O)C(=O)N[C@@H](CCCNC(=N)N)C(=O)NC(C)(C)C(=O)N[C@@H](C)C(=O)N[C@@H](CCC(N)=O)C(=O)NC(C)(C)C(=O)N[C@@H](CC(N)=O)C(=O)N[C@@H](Cc1ccccc1)C(=O)N[C@H](C(=O)N[C@@H](CC(N)=O)C(=O)N[C@@H](Cc1c[nH]c2ccccc12)C(=O)N[C@@H](CC(C)C)C(=O)N[C@@H](CC(C)C)C(=O)N[C@@H](C)C(=O)N[C@@H](CCC(N)=O)C(=O)N[C@@H](CO)C(=O)N1CCC[C@H]1C(=O)N[C@@H](CO)C(=O)N[C@@H](CO)C(=O)NCC(=O)N[C@@H](C)C(=O)N1CCC[C@H]1C(=O)N1CCC[C@H]1C(=O)N1CCC[C@H]1C(=O)N[C@@H](CO)C(N)=O)C(C)C)[C@@H](C)CC [Compound 29] (H-[NMeY][Aib]EGTFISDYSI[Aib]K([AEEA-AEEA-γGlu-γGlu-C17 diacid])DR[Aib]AQ[Aib]NFVNWLLAQSPSSGAPPPS-NH2) | ≥ 30 | ≥ 15 |  | 
CC[C@H](C)[C@H](NC(=O)[C@H](CO)NC(=O)[C@H](Cc1ccc(O)cc1)NC(=O)[C@H](CC(=O)O)NC(=O)[C@H](CO)NC(=O)[C@@H](NC(=O)[C@H](Cc1ccccc1)NC(=O)[C@@H](NC(=O)CNC(=O)[C@H](CCC(=O)O)NC(=O)C(C)(C)NC(=O)[C@H](Cc1ccc(O)cc1)NC)[C@@H](C)O)[C@@H](C)CC)C(=O)N[C@@H](C)C(=O)N[C@@H](CC(C)C)C(=O)N[C@@H](CC(=O)O)C(=O)N[C@@H](CCCNC(=N)N)C(=O)NC(C)(C)C(=O)N[C@@H](C)C(=O)N[C@@H](CCC(N)=O)C(=O)NC(C)(C)C(=O)N[C@@H](CCCCNC(=O)COCCOCCNC(=O)COCCOCCNC(=O)CC[C@H](NC(=O)CC[C@H](NC(=O)CCCCCCCCCCCCCCCC(=O)O)C(=O)O)C(=O)O)C(=O)N[C@@H](Cc1ccccc1)C(=O)N[C@H](C(=O)N[C@@H](CC(N)=O)C(=O)N[C@@H](Cc1c[nH]c2ccccc12)C(=O)N[C@@H](CC(C)C)C(=O)N[C@@H](CC(C)C)C(=O)N[C@@H](C)C(=O)N[C@@H](CCC(N)=O)C(=O)N[C@@H](CCCNC(=N)N)C(=O)NCC(=O)NCC(=O)NCC(=O)NCC(=O)N[C@@H](CO)C(N)=O)C(C)C [Compound 30] (H-[NMeY][Aib]EGTFISDYSIALDR[Aib]AQ[Aib]K([AEEA-AEEA-γGlu-γGlu-C17 diacid])FVNWLLAQRGGGGS-NH2) |  |  | ≥ 15 | ≥ 30
CC[C@H](C)[C@H](NC(=O)[C@H](CO)NC(=O)[C@H](Cc1ccc(O)cc1)NC(=O)[C@H](CC(=O)O)NC(=O)[C@H](CO)NC(=O)[C@@H](NC(=O)[C@H](Cc1ccccc1)NC(=O)[C@@H](NC(=O)CNC(=O)[C@H](CCC(=O)O)NC(=O)C(C)(C)NC(=O)[C@H](Cc1ccc(O)cc1)NC)[C@@H](C)O)[C@@H](C)CC)C(=O)N[C@@H](C)C(=O)N[C@@H](CC(C)C)C(=O)N[C@@H](CC(=O)O)C(=O)N[C@@H](CCCNC(=N)N)C(=O)NC(C)(C)C(=O)N[C@@H](CCCCNC(=O)COCCOCCNC(=O)COCCOCCNC(=O)CC[C@H](NC(=O)CC[C@H](NC(=O)CCCCCCCCCCCCCCCC(=O)O)C(=O)O)C(=O)O)C(=O)N[C@@H](CCC(N)=O)C(=O)NC(C)(C)C(=O)N[C@@H](CC(N)=O)C(=O)N[C@@H](Cc1ccccc1)C(=O)N[C@H](C(=O)N[C@@H](CC(N)=O)C(=O)N[C@@H](Cc1c[nH]c2ccccc12)C(=O)N[C@@H](CC(C)C)C(=O)N[C@@H](CC(C)C)C(=O)N[C@@H](C)C(=O)N[C@@H](CCC(N)=O)C(=O)N[C@@H](CO)C(=O)NCC(=O)NCC(=O)NCC(=O)NCC(=O)N[C@@H](CO)C(N)=O)C(C)C [Compound 31] (H-[NMeY][Aib]EGTFISDYSIALDR[Aib]K([AEEA-AEEA-γGlu-γGlu-C17 diacid])Q[Aib]NFVNWLLAQSGGGGS-NH2) |  |  | ≥ 15 | ≥ 30
